Where a chain is given by its changes, count along the chain named.
Assays:
[1] = biological target: T1, Islet amyloid polypeptide (IAPP, or amylin), wild-type (Homo sapiens, UniProt P10997); experiment: T1ρ and WaterLOGSY ligand-observed NMR; type: binding; details: IAPP monomer; 20 μM IAPP, 100 μM compound, 25 mM sodium phosphate pH 6.8, 1% v/v DMSO-d6, 5 °C
T1 construct: SEC-purified monomer; N-terminally biotinylated at Lys1 (PEG4) for SPR only; cut from pro-islet amyloid polypeptide
T1 sequence (P10997 34-70): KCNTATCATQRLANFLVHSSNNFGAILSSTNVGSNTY

[2] = biological target: T1, Islet amyloid polypeptide (IAPP, or amylin), wild-type; experiment: SPR, biotinylated IAPP on streptavidin chip; type: binding
[3] = biological target: T1, Islet amyloid polypeptide (IAPP, or amylin), wild-type; experiment: ThT fluorescence amyloid assembly assay; type: biochemical; details: 10 μM IAPP, 50 μM compound, 160 mM ammonium acetate pH 7.4, 1% v/v DMSO, 30 °C, quiescent; mainly inhibits primary nucleation
[4] = biological target: T2, Islet amyloid polypeptide (IAPP, or amylin), wild-type (Homo sapiens, UniProt P10997, S53G); experiment: ThT fluorescence amyloid assembly assay; type: biochemical; details: 160 mM ammonium acetate pH 7.4, 1% v/v DMSO, 30 °C; inhibition of amyloid formation
T2 construct: SEC-purified monomer; N-terminally biotinylated at Lys1 (PEG4) for SPR only; cut from pro-islet amyloid polypeptide
T2 sequence (P10997 34-70 S53G): T1 sequence (P10997 34-70) with S20G

| Kd [2] [µM] | fold-change in half-time of amyloid formation at 50 μM [3] [fold] | SMILES | ligand binding (observed by NMR) [1] | ThT fluorescence amyloid assembly assay [4] |
| --- | --- | --- | --- | --- |
| > 150 | 1.55 ± 0.22 | Cc1ccc([C@@H]2O[C@H](CO)[C@@H](O)[C@H](O)[C@H]2O)cc1Cc1ccc(-c2ccc(F)cc2)s1 [canagliflozin] | further evidence that canagliflozin binds IAPP monomers with strong changes in all protons | only canagliflozin was able to inhibit amyloid formation by the familial S20G variant of IAPP |
| – | 1.61 ± 0.29 | COc1cc2nc(N3CCN(C(=O)C4COc5ccccc5O4)CC3)nc(N)c2cc1OC (centres unmarked) [doxazosin] | – | – |
